Laboratory results: patent publication US20070027033A1, “Anti-germination method of tubers or bulbs using eugenol and/or isoeugenol” (priority 2005, published 2007)

System: germination and nascent sprouts of potatoes
Test: Post-storage application to washed potatoes, in line or by immersion, compared with CIPC and other essential oils
Format: in vivo, potato
Conditions: emulsifiable liquid solution applied in line to washed potatoes or by immersion in dilute aqueous solution, after storage, at ambient temperature

C=CCc1ccc(O)c(OC)c1 [eugenol]
prevention of germination and burning of nascent sprouts: more effectively than the CIPC-based formulation or other essential oils
